Experimental data reported in patent US10385103B2, “Cell-permeable (ICP)-SOCS3 recombinant protein and uses thereof” (CELLIVERY THERAPEUTICS, INC., priority 2014, dated 2019).

Tested on: RAW 264.7 cells
Test: Quantitative cell-permeability of FITC-labeled aMTD- or rPeptide-fused CRA recombinant proteins (flow cytometry)
Format: cell-based
Settings: for Relative Ratio to aMTD AVE: cell-permeability of rPeptide-fused CRA recombinant protein relative to average of 240 aMTDs
Source text: The aMTDs and rPeptides were fluorescently labeled and compared based on the critical factors for cell-permeability by using flow cytometry and confocal laser scanning microscopy (FIGS. 5 to 8). The cellular uptake of the peptide-fused non-functional cargo recombinant proteins could quantitatively be evaluated in flow cytometry, while confocal laser scanning microscopy allows intracellular uptake to be assessed visually. The analysis included recombinant proteins fused to a negative control [rP38] that has opposite characteristics (hydrophilic and aromatic sequence: […] NO: 952)) to the aMTDs (hydrophobic and aliphatic sequences). Relative cell-permeability (relative fold) of aMTDs to the negative control was also analyzed (Table 23 and FIG. 9). […] RAW 264.7 cells were treated with 10 μM FITC-labeled recombinant proteins for 1 hour at 37° C., washed three times with cold PBS, treated with 0.25% tripsin/EDTA (Sigma-Aldrich, St. Louis, Mo.) for 20 minutes at 37° C. to remove cell-surface bound proteins. Cell-permeability of these recombinant proteins were analyzed by flow cytometry (Guava, Millipore, Darmstadt, Germany) using the FlowJo cytometric analysis software (FIGS. 5 to 6).

[1] = cell-permeability of aMTD-fused CRA recombinant protein relative to negative control (A: rP38)
[2] = cell-permeability of aMTD-fused CRA recombinant protein relative to reference CPP (B: MTM12)
[3] = cell-permeability of aMTD-fused CRA recombinant protein relative to reference CPP (C: MTD85)
[4] = 10 μM FITC-labeled, 1 hour, 37° C., RAW 264.7 cells
[5] = cell-permeability relative to negative control rP38 (A type), aMTD-fused CRA recombinant protein, 10 μM FITC-labeled, 1 hour, 37° C., RAW 264.7 cells
[6] = cell-permeability relative to reference CPP MTD85 (C type), aMTD-fused CRA recombinant protein, 10 μM FITC-labeled, 1 hour, 37° C., RAW 264.7 cells
[7] = cell-permeability relative to reference CPP MTM12 (B type), aMTD-fused CRA recombinant protein, 10 μM FITC-labeled, 1 hour, 37° C., RAW 264.7 cells

Substance	Relative Ratio (Fold) A [1]	Relative Ratio (Fold) B [2]	Relative Ratio (Fold) C [3]	further results
312 (VALLAPAVVVAP; Amino acid Sequence of aMTD912) [compound 312]	19.9 Fold	13.3 Fold	6.7 Fold	
321 (IVAVALPALAVP; Amino acid Sequence of aMTD321) [compound 321]	97.8 Fold	65.2 Fold	32.9 Fold	
322 (VVAIVLPALAAP; Amino acid Sequence of aMTD322) [compound 322]	17.6 Fold	11.7 Fold	5.9 Fold	
323 (IVAVALPVALAP; Amino acid Sequence of aMTD323) [compound 323]	19.1 Fold	12.8 Fold	6.4 Fold	
324 (IVAVALPAALVP; Amino acid Sequence of aMTD324) [compound 324]	10.3 Fold	6.9 Fold	3.5 Fold	Relative Ratio (Fold) A (relative cell-permeability of aMTD vs reference A (not defined)): 10.3 Fold; Relative Ratio (Fold) B (relative cell-permeability of aMTD vs reference CPP B: MTM12): 6.9 Fold; Relative Ratio (Fold) C (relative cell-permeability of aMTD vs reference CPP C: MTD85): 3.5 Fold
325 (IVAVALPAVALP; Amino acid Sequence of aMTD325) [compound 325]	11.7 Fold	7.8 Fold	4.0 Fold	
329 (LPVLVPVVPVVP; Amino acid Sequence of rPeptide ID 329) [compound 329]				Relative Ratio to aMTD AVE [4]: 0.23
341 (IVAVALPAVLAP; Amino acid Sequence of aMTD341) [compound 341]	16.4 Fold	10.9 Fold	5.5 Fold	
342 (VIVALAPAVLAP; Amino acid Sequence of aMTD342) [compound 342]	12.7 Fold	8.5 Fold	4.3 Fold	
343 (IVAVALPALVAP; Amino acid Sequence of aMTD343) [compound 343]	19.4 Fold	12.9 Fold	6.5 Fold	
345 (ALLIVAPVAVAP; Amino acid Sequence of aMTD345) [compound 345]	8.9 Fold	5.9 Fold	3.0 Fold	
361 (AVVIVAPAVIAP; Amino acid Sequence of aMTD361) [compound 361]	16.0 Fold	10.7 Fold	5.4 Fold	
364 (LVAAVAPALIVP; Amino acid Sequence of aMTD364) [compound 364]				Relative Ratio (Fold) A [5]: 6.5 Fold; Relative Ratio (Fold) C [6]: 2.2 Fold; Relative Ratio (Fold) B [7]: 4.3 Fold
365 (AVIVVAPALLAP; Amino acid Sequence of aMTD365) [compound 365]	9.3 Fold	6.2 Fold	3.1 Fold	Relative Ratio (Fold) A [5]: 9.3 Fold; Relative Ratio (Fold) C [6]: 3.1 Fold; Relative Ratio (Fold) B [7]: 6.2 Fold
382 (AAALVIPAILAP; Amino acid Sequence of aMTD382) [compound 382]	17.7 Fold	11.8 Fold	6.0 Fold	
383 (VIVALAPALLAP; Amino acid Sequence of aMTD383) [compound 383]	11.6 Fold	7.7 Fold	3.9 Fold	
384 (VIVAIAPALLAP; Amino acid Sequence of aMTD384) [compound 384]	14.0 Fold	9.4 Fold	4.7 Fold	

Substance	Relative Ratio (Fold) A [1]	Relative Ratio (Fold) B [2]	Relative Ratio (Fold) C [3]	further results
385 (IVAIAVPALVAP; Amino acid Sequence of aMTD385) [compound 385]	38.8 Fold	25.9 Fold	13.1 Fold	
390 (VPLLVPVVPVVP; Amino acid Sequence of rPeptide ID 390) [compound 390]				Relative Ratio to aMTD AVE [4]: 0.41
391 (VVAIVLPAVAAP; Amino acid Sequence of aMTD381) [compound 391]	11.5 Fold	7.7 Fold	3.9 Fold	
401 (AALAVIPAAILP; Amino acid Sequence of aMTD401) [compound 401]	10.6 Fold	7.1 Fold	3.6 Fold	
402 (ALAAVIPAAILP; Amino acid Sequence of aMTD402) [compound 402]				Relative Ratio (Fold) A [5]: 6.4 Fold; Relative Ratio (Fold) C [6]: 2.2 Fold; Relative Ratio (Fold) B [7]: 4.3 Fold
403 (AAALVIPAAILP; Amino acid Sequence of aMTD403) [compound 403]	25.2 Fold	16.8 Fold	8.5 Fold	
404 (LAAAVIPAAILP; Amino acid Sequence of aMTD404) [compound 404]	18.9 Fold	12.6 Fold	6.4 Fold	
405 (LAAAVIPVAILP; Amino acid Sequence of aMTD405) [compound 405]	22.2 Fold	14.8 Fold	7.5 Fold	
421 (AAILAAPLIAVP; Amino acid Sequence of aMTD421) [compound 421]				Relative Ratio (Fold) A [5]: 6.7 Fold; Relative Ratio (Fold) C [6]: 2.3 Fold; Relative Ratio (Fold) B [7]: 4.5 Fold
422 (VVAILAPLLAAP; Amino acid Sequence of aMTD422) [compound 422]	19.6 Fold	13.1 Fold	6.6 Fold	
424 (AVVVAAPVLALP; Amino acid Sequence of aMTD424) [compound 424]				Relative Ratio (Fold) A [5]: 6.6 Fold; Relative Ratio (Fold) C [6]: 2.2 Fold; Relative Ratio (Fold) B [7]: 4.4 Fold
425 (AVVAIAPVLALP; Amino acid Sequence of aMTD425) [compound 425]	9.4 Fold	6.3 Fold	3.2 Fold	
426 (AAALAIPLAIIP; Amino acid Sequence of rPeptide ID 426) [compound 426]				Relative Ratio to aMTD AVE [4]: 0.40
442 (ALAALVPAVLVP; Amino acid Sequence of aMTD442) [compound 442]	20.4 Fold	12.6 Fold	6.9 Fold	
443 (ALAALVPVALVP; Amino acid Sequence of aMTD443) [compound 443]	8.0 Fold	5.3 Fold	2.7 Fold	
444 (LAAALVPVALVP; Amino acid Sequence of aMTD444) [compound 444]	8.1 Fold	5.4 Fold	2.7 Fold	
445 (ALAALVPALVVP; Amino acid Sequence of aMTD445) [compound 445]				Relative Ratio (Fold) A [5]: 6.9 Fold; Relative Ratio (Fold) C [6]: 2.3 Fold; Relative Ratio (Fold) B [7]: 4.6 Fold
